Data: US5948931A (priority 1997, dated 1999)
“And” between values parts separate entries of the source, which are not always exact repeats. Equal values may be shown once. “Also recorded” adds a separate entry of the source. Where a name gives a salt, the structure may show the parent alone. Read-outs that look alike come from different tables or passages of the source.

Assays:
[1] = Stability of DCHA+ salts 3 heated in different solvents (31P NMR); assay type: physicochemical; settings: for degraded at 3.5 h: water, read-out: conversion to phosphate
Procedure: Stability of DCHA^+ Salts 3 Heated in Different Solvents. 40 mg 3 (E or Z) was heated in 5 ml of alcohol mixture, H2 O or acetonitrile. Reaction progress was monitored by ^31 P NMR spectroscopy.

[2] = Stability of C-esters of Troika acid (E-2) in water; assay type: physicochemical
[3] = pH dependence of the stability of DCHA+ salts 3 in D2O (31P NMR); assay type: physicochemical; settings: 22° C.; for stability in D2O: 24 h, pH 2-8; for remaining at 24 h / Z isomer formed from E-3 (% int, 31P NMR) / F, fragmentation product (HO)2P(O)OH from E-3 (% int) / H, hydrolysis product 4 from E-3 (% int) / E isomer formed from Z-3 (% int, 31P NMR) / F, fragmentation product (HO)2P(O)CN from Z-3 (% int) / H, hydrolysis product 4 from Z-3 (% int): t = 24 h
Procedure: pH Dependence of the Stability of DCHA^+ Salts 3. These experiments were carried out in 5 mm glass NMR tubes in D2 O at 22° C., concentration of 3 0.1% (w/v).

[4] = Alkaline hydrolysis of E-3 and Z-3 to salts 4; assay type: physicochemical; settings: for time to complete hydrolysis: NaOH in D2O; for time of alkaline hydrolysis: aq. NaOH, 25° C., pH 13-14
Procedure: In an additional aspect of the present invention, C-alkyl esters of 3 can be stable under physiological conditions but can be reactive under more vigorous conditions. The stability of the parent Troika acids in H2 O were analyzed. Alkaline hydrolysis by methods known by those skilled in the art of E-3 and Z-3 (preferably, aq. NaOH, at a temperature of 25° C., at pH 13-14) can give the corresponding sodium salts E-4 and Z-4, the Z ester reacting much more rapidly (1 h vs. 70 h for E-3). Both salts 4 can be quite stable at high pH, typically, at pH values greater than 10, and room temperature, but at about pH 6 facile stereospecific fragmentations can be observed. […] The transformation of anti α-keto acid oximes to nitriles in aqueous solution at 40-100°C. is well known to those skilled in the art, but the corresponding process giving a phosphononitrile from a phosphonate α-oxime, observed with Z-4, was unexpected. Furthermore, an additional unexpected result in accordance with the present invention, was the finding that simple removal of the carboxy alkyl group of E-3 can create a reagent (E-4) capable of phosphorylation under mild aqueous conditions.
Synthesis of E4 & 5. 10 N NaOH ([…]) was added to E-3 (10 mg) in D2 O (0.4 ml) in an NMR tube, raising the pH to ~13. Hydrolysis was monitored by ^1 H and ^31 P NMR at room temperature. The reaction was complete in 3 d, giving a product identified by ^13 C and ^31 P NMR as E-4. ^13 C NMR (D2 O): δ (ppm) 161.8 (d, ^1 JPC =176 Hz, P--C=N), 175.4 (d, ^2 JPC =21 Hz, C=O); ^31 P NMR (D2 O, pH=13-14): δ (ppm) 2.8.
Acidification of Z-4 & 6. An analogous procedure for E-4 was carried out with the Z-3 isomer. Hydrolysis was complete within 1 h, yielding Z-4. […] (D2 O, pH=13-14): δ (ppm) 161.1 (d, ^1 JPC =127 Hz, P--C=N), […], 171.9 (d, ^2 JPC =17 Hz, C=O); ^31 P NMR (D2 O, pH=13-14): δ (ppm), 2.0.

[5] = for fragmentation product: about pH 6; for stability at high pH: pH greater than 10, room temperature
[6] = assay type: physicochemical
[7] = Photochemical activation (UV irradiation) of ONBCE-TA in Tris buffer; assay type: physicochemical
Procedure: Photochemical Activation Example. 5 mg of o-Nitrobenzyl (E)-dihydroxyphosphinyl)(hydroxyimino)acetate (ONBCE-TA) (prepared analogously to PNHDA) dissolved in 0.5 ml of 100 mM Tris buffer (pH 6.9) was irradiated in a Rayonet apparatus for 17 hr at 39° C. Phosphoric acid (the product from phosphorylation of solvent water) was obtained, yield 11%. The phosphorylation was not noticed in the absence of UV irradiation.

[8] = pH 10, 27° C.; known to those skilled in the art; cited from earlier work
[9] = Exp 2, EtOH:i-PrOH 1:1, 79° C., 30 h
[10] = Exp 3, EtOH:t-BuOH 1:1, 79° C., 28 h
[11] = Exp 5, H2O (pH 6-7), 82-84° C., 4.0 h
[12] = Exp 8, H2O (pH 6-7), 82-84° C., 5.7 h

SMILES: COC(=O)/C(=N\O)P(=O)(O)O [E-2, methyl α-(hydroxyimino)phosphonoacetic acid]
- thermal stability ([1]; 1 d in refluxing AN, DCHA+ salt): decomposed to polyphosphates
- stability in water ([2]; H2O at physiological pH): stable
- stability in water ([2]; neutral and acidic pH, room temperature): stable at both acidic and neutral pH; also recorded: stable in water at room temperature

SMILES: COC(=O)/C(=N\O)P(=O)(O)O [E-3, Dicyclohexylammonium E-Methyl (Hydroxyimino)phosphonoacetate]
- stability in D2O [3]: stable
- E isomer (% int, 31P NMR) ([3]; t = 0, pH 2.0, D2O): 100%
- E isomer (% int, 31P NMR) ([3]; t = 0, pH 4.0, D2O): 100%
- E isomer (% int, 31P NMR) ([3]; t = 0, pH 6.2, D2O): 100%
- E isomer (% int, 31P NMR) ([3]; t = 0, pH 8.1, D2O): 100%
- E isomer (% int, 31P NMR) ([3]; t = 0, pH 10.4, D2O): 100%
- E isomer (% int, 31P NMR) ([3]; t = 0, pH 11.0, D2O): 100%
- remaining at 24 h ([3]; pH 2.0, D2O, read-out: E isomer (% int, 31P NMR)): 100%
- remaining at 24 h ([3]; pH 4.0, D2O, read-out: E isomer (% int, 31P NMR)): 100%
- Z isomer formed from E-3 (% int, 31P NMR) ([3]; pH 6.2, D2O): 8.9%
- remaining at 24 h ([3]; pH 6.2, D2O, read-out: E isomer (% int, 31P NMR)): 91.1%
- Z isomer formed from E-3 (% int, 31P NMR) ([3]; pH 8.1, D2O): 8.7%
- remaining at 24 h ([3]; pH 8.1, D2O, read-out: E isomer (% int, 31P NMR)): 91.3%
- F, fragmentation product (HO)2P(O)OH from E-3 (% int) ([3]; pH 10.4, D2O): 1.2%
- H, hydrolysis product 4 from E-3 (% int) ([3]; pH 10.4, D2O): 6.9%
- Z isomer formed from E-3 (% int, 31P NMR) ([3]; pH 10.4, D2O): 3.0%
- remaining at 24 h ([3]; pH 10.4, D2O, read-out: E isomer (% int, 31P NMR)): 87.2%
- F, fragmentation product (HO)2P(O)OH from E-3 (% int) ([3]; pH 11.0, D2O): 3.6%
- H, hydrolysis product 4 from E-3 (% int) ([3]; pH 11.0, D2O): 18.4%
- Z isomer formed from E-3 (% int, 31P NMR) ([3]; pH 11.0, D2O): 1.8%
- remaining at 24 h ([3]; pH 11.0, D2O, read-out: E isomer (% int, 31P NMR)): 76.2%
- stability on heating ([1]; 5 h in 1:1 MeOH:i-PrOH, 72° C.): unchanged
- Et phosphate and i-Pr phosphate formed ([1]; 30 h in 1:1 EtOH:i-PrOH, 79° C.): 84%
- Et-phosphate (yield, %) [1, 9]: 48.3%
- Z-isomer (yield, %) [1, 9]: 2.5%
- i-Pr-phosphate (yield, %) [1, 9]: 35.8%
- phosphate (yield, %) [1, 9]: 8.5%
- s.m. (%) [1, 9]: 4.9%
- Et-phosphate (yield, %) [1, 10]: 33.9%
- Z-isomer (yield, %) [1, 10]: 29.4%
- phosphate (yield, %) [1, 10]: 9.4%
- s.m. (%) [1, 10]: 10.4%
- t-Bu-phosphate (yield, %) [1, 10]: 16.9%
- phosphate (yield, %) ([1]; Exp 4, H2O (pH 4.0), 82-84° C., 3.5 h): 100%
- phosphate (yield, %) [1, 11]: 87.7%
- s.m. (%) [1, 11]: 12.3%
- phosphate (yield, %) ([1]; Exp 6, MeCN, 81° C., 3.5 h): 0.6%
- phosphononitrile (yield, %) ([1]; Exp 6, MeCN, 81° C., 3.5 h): 2.1%
- polyphosphates (yield, %) ([1]; Exp 6, MeCN, 81° C., 3.5 h): 80.9%
- s.m. (%) ([1]; Exp 6, MeCN, 81° C., 3.5 h): 16.4%
- polyphosphate products ([1]; refluxing acetonitrile, several hours): 81%
- degraded at 3.5 h ([1]; H2O, pH 4.0, 3.5 h, 82-84° C.): 100%
- degraded at 3.5 h ([1]; H2O, pH ~6.5, 3.5 h, 82-84° C.): 88%
- time to complete hydrolysis ([4]; pH ~13, room temperature): 3 days
- time of alkaline hydrolysis [4]: 70 h

SMILES: O=C(O)/C(=N\O)P(=O)(O)O [E-4]
- fragmentation product [5]: exclusively orthophosphoric acid
- stability at high pH [5]: quite stable
- half-life (physchem; d2o, pH 5.7): < 10 min
- half-life (physchem; water, pH 6): < 10 min

SMILES: COP(=O)(O)/C(=N/O)C(=O)O [E-13, Bis-DCHA^+ Salt (E-13) of (E)-(Hydroxyimino)-(hydroxymethoxyphosphinyl)acetic Acid]
- ethyl and t-butyl methyl phosphate, total ([6]; 1:1 EtOH-t-BuOH): 24%
- phosphorylation products ([6]; heated in acetonitrile or EtOH): 16-19%

SMILES: O=C(OCc1ccccc1[N+](=O)[O-])/C(=N\O)P(=O)(O)O [ONBCE-TA]
- phosphoric acid formed (yield) ([7]; UV, 17 hr, 39° C., 100 mM Tris pH 6.9): 11%
- phosphorylation without irradiation ([7]; absence of UV irradiation): not noticed

SMILES: COC(=O)/C(=N/O)P(=O)(O)O [Z-3, Bis(dicyclohexylammonium) Z-Methyl (Hydroxyimino)phosphonoacetate]
- stability in D2O [3]: stable
- Z isomer (% int, 31P NMR) ([3]; t = 0, pH 2.0, D2O): 100%
- Z isomer (% int, 31P NMR) ([3]; t = 0, pH 4.2, D2O): 100%
- Z isomer (% int, 31P NMR) ([3]; t = 0, pH 6.7, D2O): 100%
- Z isomer (% int, 31P NMR) ([3]; t = 0, pH 8.3, D2O): 100%
- Z isomer (% int, 31P NMR) ([3]; t = 0, pH 10.4, D2O): 100%
- Z isomer (% int, 31P NMR) ([3]; t = 0, pH 11.0, D2O): 100%
- remaining at 24 h ([3]; pH 2.0, D2O, read-out: Z isomer (% int, 31P NMR)): 100%
- remaining at 24 h ([3]; pH 4.2, D2O, read-out: Z isomer (% int, 31P NMR)): 100%
- E isomer formed from Z-3 (% int, 31P NMR) ([3]; pH 6.7, D2O): 5.0%
- remaining at 24 h ([3]; pH 6.7, D2O, read-out: Z isomer (% int, 31P NMR)): 95%
- E isomer formed from Z-3 (% int, 31P NMR) ([3]; pH 8.3, D2O): 7.4%
- remaining at 24 h ([3]; pH 8.3, D2O, read-out: Z isomer (% int, 31P NMR)): 92.6%
- E isomer formed from Z-3 (% int, 31P NMR) ([3]; pH 10.4, D2O): 8.5%
- F, fragmentation product (HO)2P(O)CN from Z-3 (% int) ([3]; pH 10.4, D2O): 1.7%
- H, hydrolysis product 4 from Z-3 (% int) ([3]; pH 10.4, D2O): 2.6%
- remaining at 24 h ([3]; pH 10.4, D2O, read-out: Z isomer (% int, 31P NMR)): 87.2%
- F, fragmentation product (HO)2P(O)CN from Z-3 (% int) ([3]; pH 11.0, D2O): 9.2%
- H, hydrolysis product 4 from Z-3 (% int) ([3]; pH 11.0, D2O): 14.5%
- remaining at 24 h ([3]; pH 11.0, D2O, read-out: Z isomer (% int, 31P NMR)): 76.3%
- stability on heating ([1]; 4 h in 1:1 EtOH:i-PrOH, 79° C.): stable
- E-isomer (yield, %) [1, 12]: 4.7% and 5%
- phosphate (yield, %) [1, 12]: 27.8% and 28%
- phosphononitrile (yield, %) [1, 12]: 13.4% and 13%
- s.m. (%) [1, 12]: 54.1%
- conversion ([1]; H2O, 5.7 h, 82-84° C.): 46%
- time to complete hydrolysis ([4]; room temperature): ≤ 0.042 days
- time of alkaline hydrolysis [4]: 1 h

SMILES: O=C(O)/C(=N/O)P(=O)(O)O [Z-4]
- fragmentation product [5]: cyanophosphonic acid
- stability at high pH [5]: quite stable
- half-life (physchem; d2o, pH 6): ~5 min

SMILES: O=C(CP(=O)(O)O)Oc1ccc([N+](=O)[O-])cc1 [p-nitrophenyl phosphonoacetate]
- hydrolysis vs. p-nitrophenyl acetate (times slower) [8]: 250 ×
